Earlier results on 1 compound are cited in US8337856B2, “Methods of treatment using anti-ERBB antibody-maytansinoid conjugates” (Immunogen, Inc., priority 2000, dated 2012).

The conditions of this data set: clinical trials discontinued.

For `COc1cc2cc(c1Cl)N(C)C(=O)C[C@H](OC(=O)[C@H](C)N(C)C(C)=O)[C@]1(C)O[C@H]1[C@H](C)[C@@H]1C[C@@](O)(NC(=O)O1)[C@H](OC)/C=C/C=C(\C)C2` [maytansine, Maytansine], the “adverse effects in clinical trials” value is “serious adverse effects on the central nervous system and gastrointestinal system”.
